Measured values taken from patent publication US20190315806A1, “POLYMYXIN DERIVATIVE, PREPARATION METHOD AND APPLICATION THEREOF” (priority 2016, published 2019).
Values after ≈ are worked out from the molar mass of the structure shown. Like-named read-outs stand apart in the source and are kept apart here. Where a SMILES comes first, the peptide text is derived from it. Bridges are numbered along the chain shown (N, C = ends). [ ]: non-standard residue; d: D form. The star is where a group is joined. Heptanoyl(6-Me) = CC(C)CCCCC(=O)*; Nonanoyl = CCCCCCCCC(=O)*; X2 = CC[C@H](C)CCCCC(=O)*; dDab = NCC[C@@H](N)C(=O)O; Heptanoyl = CCCCCCC(=O)*; Octanoyl = CCCCCCCC(=O)*; Dab = NCC[C@H](N)C(=O)O

Tests used:
Format in all cases: cell-based
[1] = tested on: Acinetobacter baumannii ATCC 19606
How it was run: (§1)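 Read-out was the lowest drug level in agar preventing visible colony growth after 18 to 24 hours at 35° C. Plates held twofold dilutions (0.03–128 μg/mL final), prepared following CLSI. Bacteria were inoculated at 10^4 CFU/dot with a multipoint inoculator.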

[2] = tested on: Pseudomonas aeruginosa ATCC 27853
How it was run: as §1

[3] = tested on: Escherichia coli ATCC 25922
How it was run: as §1

[4] = tested on: Staphylococcus epidermidis ATCC 12228
How it was run: as §1

[5] = tested on: Klebsiella pneumoniae ATCC BAA-2146 (NDM-1); assay: Antibacterial activity, MIC by dish double dilution method
How it was run: as §1

[6] = Nephrotoxicity test, renal cytotoxicity by MTT method; conditions: African green monkey
Experimental: African green monkey kidney cells (Vero cells) were cultured in MEM medium (Hyclone), 10% fetal calf serum (Invitrogen) was added before use, cultured at 37° C. under 5% CO2.
Experiment was carried out using MTT method. After digestion, cells in logarithmic growth phase were counted, then the cells were inoculated in a 96-well culture plate. After incubation for 24 h to be adherent, cells were treated with a concentration gradient of a compound of the invention (e.g., a compound prepared in the Embodiments) and the controls. After 72 h, the culture solution was removed, 100 uL of MTT reagent at a concentration of 0.5 mg/ml was added, the medium was removed after incubating for 3 hours in a 37° C. incubator. Add 150 μL DMSO solvent to each well, mix for 3 min, after which the absorbance at 570 nm (A) was measured with a microplate reader.
Cell viability %=(Adosed cell−Abackground)/(Acontrol cell−Abackground)×100%. The average value of 3 parallel wells was taken for each detection point, and the inhibition curve was drawn to calculate the IC50 value.
The African green monkey kidney cells (Vero cells) used in the experiment were from the Cell Resource Center of the Institute of Basic Medicine, Chinese Academy of Medical Sciences.

[7] = agar dilution, 10^4 CFU/dot, 18 to 24 hours at 35° C.

Structure (SMILES) | MIC A. baumannii ATCC 19606 ([1]; ATCC 19606) [µg/mL] | MIC P. aeruginosa ATCC 27853 ([2]; ATCC 27853) [µg/mL] | MIC E. coli ATCC 25922 ([3]; ATCC 25922) [µg/mL] | MIC S. epidermidis ATCC 12228 ([4]; ATCC 12228) [µg/mL] | MIC K. pneumoniae ATCC BAA-2146 (NDM-1) ([5]; ATCC BAA-2146) [µg/mL] | IC50 at 72 h [6] [µg/mL] | MIC A. baumannii ATCC 19606 [1, 7] [µg/mL] | MIC P. aeruginosa ATCC 27853 [2, 7] [µg/mL] | MIC E. coli ATCC 25922 [3, 7] [µg/mL] | MIC S. epidermidis ATCC 12228 [4, 7] [µg/mL] | MIC K. pneumoniae ATCC BAA-2146 (NDM-1) [5, 7] [µg/mL] | IC50 at 72 h ([6]; MTT, 72 h treatment, 3 parallel wells, read-out: Renal cytotoxicity IC50, Vero cells) [µg/mL]
CC(C)CCCCC(=O)N[C@@H](CCN)C(=O)N[C@H](C(=O)N[C@H](CCN)C(=O)N[C@H]1CCNC(=O)[C@H]([C@@H](C)O)NC(=O)[C@H](CCN)NC(=O)[C@H](CCN)NC(=O)[C@H]([C@@H](C)O)NC(=O)[C@@H](CC(C)C)NC(=O)[C@H](CCN)NC1=O)[C@@H](C)O [Compound 31, 6-methylheptanoyl-Dab-Thr-D-Dab-ring(4-10)[Dab-Dab-D-Leu-Thr-Dab-Dab-Thr]] ({Heptanoyl(6-Me)}-[Dab]T[dDab][Dab][Dab][dL]T[Dab][Dab]T; lactam 4-C) | 0.5 (≈ 0.437 µM) | 1 (≈ 0.875 µM) | 0.5 (≈ 0.437 µM) | >128 | 0.5 (≈ 0.437 µM) | 288 ± 23.3 (≈ 252 µM) |  |  |  |  |  | 
CC[C@H](C)CCCCC(=O)N[C@@H](CCN)C(=O)N[C@H](C(=O)N[C@@H](CCN)C(=O)N[C@H]1CCNC(=O)[C@H]([C@@H](C)O)NC(=O)[C@H](CCN)NC(=O)[C@H](CCN)NC(=O)[C@H](CC(C)C)NC(=O)[C@@H](Cc2ccccc2)NC(=O)[C@H](CCN)NC1=O)[C@@H](C)O [Compound 42, (S)-6-methyloctanoyl-Dab-Thr-Dab-ring(4-10)[Dab-Dab-D-Phe-Leu-Dab-Dab-Thr]] (X2-[Dab]T[Dab][Dab][Dab][dF]L[Dab][Dab]T; lactam 4-C) |  |  |  |  |  |  | 1 (≈ 0.831 µM) | 2 (≈ 1.66 µM) | 0.5 (≈ 0.415 µM) | 32 (≈ 26.6 µM) | 0.5 (≈ 0.415 µM) | 71.3 ± 6.08 (≈ 59.2 µM)
CC(C)CCCCC(=O)N[C@@H](CCN)C(=O)N[C@H](C(=O)N[C@@H](CCN)C(=O)N[C@H]1CCNC(=O)[C@H]([C@@H](C)O)NC(=O)[C@H](CCN)NC(=O)[C@H](CCN)NC(=O)[C@H](CC(C)C)NC(=O)[C@@H](Cc2ccccc2)NC(=O)[C@H](CCN)NC1=O)[C@@H](C)O [Compound 43, 6-methylheptanoyl-Dab-Thr-Dab-ring(4-10)[Dab-Dab-D-Phe-Leu-Dab-Dab-Thr]] ({Heptanoyl(6-Me)}-[Dab]T[Dab][Dab][Dab][dF]L[Dab][Dab]T; lactam 4-C) | 0.5 (≈ 0.42 µM) | 2 (≈ 1.68 µM) | 0.5 (≈ 0.42 µM) | 64 (≈ 53.8 µM) |  | 159 ± 14.1 (≈ 134 µM) |  |  |  |  | 1 (≈ 0.841 µM) | 
CCCCCCCC(=O)N[C@@H](CCN)C(=O)N[C@H](C(=O)N[C@@H](CCN)C(=O)N[C@H]1CCNC(=O)[C@H]([C@@H](C)O)NC(=O)[C@H](CCN)NC(=O)[C@H](CCN)NC(=O)[C@H](CC(C)C)NC(=O)[C@@H](Cc2ccccc2)NC(=O)[C@H](CCN)NC1=O)[C@@H](C)O [Compound 44, octanoyl-Dab-Thr-Dab-ring(4-10)[Dab-Dab-D-Phe-Leu-Dab-Dab-Thr]] (Octanoyl-[Dab]T[Dab][Dab][Dab][dF]L[Dab][Dab]T; lactam 4-C) | 0.5 (≈ 0.42 µM) | 1 (≈ 0.841 µM) | 0.5 (≈ 0.42 µM) | 32 (≈ 26.9 µM) | 1 (≈ 0.841 µM) | 86.4 ± 8.31 (≈ 72.6 µM) |  |  |  |  |  | 
CCCCCCC(=O)N[C@@H](CCN)C(=O)N[C@H](C(=O)N[C@@H](CCN)C(=O)N[C@H]1CCNC(=O)[C@H]([C@@H](C)O)NC(=O)[C@H](CCN)NC(=O)[C@H](CCN)NC(=O)[C@H](CC(C)C)NC(=O)[C@@H](Cc2ccccc2)NC(=O)[C@H](CCN)NC1=O)[C@@H](C)O [Compound 45, heptanoyl-Dab-Thr-Dab-ring(4-10)[Dab-Dab-D-Phe-Leu-Dab-Dab-Thr]] (Heptanoyl-[Dab]T[Dab][Dab][Dab][dF]L[Dab][Dab]T; lactam 4-C) | 0.5 (≈ 0.425 µM) | 1 (≈ 0.851 µM) | 0.5 (≈ 0.425 µM) | 128 (≈ 109 µM) | 0.5 (≈ 0.425 µM) | 160 ± 13.6 (≈ 136 µM) |  |  |  |  |  | 
CCCCCCCCC(=O)N[C@@H](CCN)C(=O)N[C@H](C(=O)N[C@@H](CCN)C(=O)N[C@H]1CCNC(=O)[C@H]([C@@H](C)O)NC(=O)[C@H](CCN)NC(=O)[C@H](CCN)NC(=O)[C@H](CC(C)C)NC(=O)[C@@H](Cc2ccccc2)NC(=O)[C@H](CCN)NC1=O)[C@@H](C)O [Compound 46, nonanoyl-Dab-Thr-Dab-ring(4-10)[Dab-Dab-D-Phe-Leu-Dab-Dab-Thr]] (Nonanoyl-[Dab]T[Dab][Dab][Dab][dF]L[Dab][Dab]T; lactam 4-C) | 1 (≈ 0.831 µM) | 2 (≈ 1.66 µM) | 1 (≈ 0.831 µM) | 32 (≈ 26.6 µM) | 2 (≈ 1.66 µM) | 33.1 ± 2.64 (≈ 27.5 µM) |  |  |  |  |  | 
CC[C@H](C)CCCCC(=O)N[C@@H](CCN)C(=O)N[C@H](C(=O)N[C@@H](CCN)C(=O)N[C@H]1CCNC(=O)[C@H]([C@@H](C)O)NC(=O)[C@H](CCN)NC(=O)[C@H](CCN)NC(=O)[C@H]([C@@H](C)CC)NC(=O)[C@@H](Cc2ccccc2)NC(=O)[C@H](CCN)NC1=O)[C@@H](C)O [Compound 47, (S)-6-methyloctanoyl-Dab-Thr-Dab-ring(4-10)[Dab-Dab-D-Phe-Ile-Dab-Dab-Thr]] (X2-[Dab]T[Dab][Dab][Dab][dF]I[Dab][Dab]T; lactam 4-C) | 1 (≈ 0.831 µM) | 2 (≈ 1.66 µM) | 1 (≈ 0.831 µM) | 128 (≈ 106 µM) | 1 (≈ 0.831 µM) | 74.7 ± 6.13 (≈ 62.1 µM) |  |  |  |  |  | 
CC[C@H](C)CCCCC(=O)N[C@@H](CCN)C(=O)N[C@H](C(=O)N[C@H](CO)C(=O)N[C@H]1CCNC(=O)[C@H]([C@@H](C)O)NC(=O)[C@H](CCN)NC(=O)[C@H](CCN)NC(=O)[C@H]([C@@H](C)O)NC(=O)[C@@H](CC(C)C)NC(=O)[C@H](CCN)NC1=O)[C@@H](C)O [Compound 58, (S)-6-methyloctanoyl-Dab-Thr-D-Ser-ring(4-10)[Dab-Dab-D-Leu-Thr-Dab-Dab-Thr]] (X2-[Dab]T[dS][Dab][Dab][dL]T[Dab][Dab]T; lactam 4-C) | 0.06 (≈ 0.0524 µM) | 2 (≈ 1.75 µM) | 0.12 (≈ 0.105 µM) | >128 | 0.5 (≈ 0.437 µM) | 189 ± 11.3 (≈ 165 µM) |  |  |  |  |  | 
CC(C)CCCCC(=O)N[C@@H](CCN)C(=O)N[C@H](C(=O)N[C@H](CO)C(=O)N[C@H]1CCNC(=O)[C@H]([C@@H](C)O)NC(=O)[C@H](CCN)NC(=O)[C@H](CCN)NC(=O)[C@H]([C@@H](C)O)NC(=O)[C@@H](CC(C)C)NC(=O)[C@H](CCN)NC1=O)[C@@H](C)O [Compound 59, 6-methylheptanoyl-Dab-Thr-D-Ser-ring(4-10)[Dab-Dab-D-Leu-Thr-Dab-Dab-Thr]] ({Heptanoyl(6-Me)}-[Dab]T[dS][Dab][Dab][dL]T[Dab][Dab]T; lactam 4-C) | 0.12 (≈ 0.106 µM) | 2 (≈ 1.77 µM) | 0.25 (≈ 0.221 µM) | >128 | 0.5 (≈ 0.442 µM) | 318 ± 25.6 (≈ 281 µM) |  |  |  |  |  | 
CC[C@H](C)CCCCC(=O)N[C@@H](CCN)C(=O)N[C@H](C(=O)N[C@@H](CCN)C(=O)N[C@H]1CCNC(=O)[C@H]([C@@H](C)O)NC(=O)[C@H](CCN)NC(=O)[C@H](CCN)NC(=O)[C@H]([C@@H](C)CC)NC(=O)[C@@H](CC(C)C)NC(=O)[C@H](CCN)NC1=O)[C@@H](C)O [Compound 71, (S)-6-methyloctanoyl-Dab-Thr-Dab-ring(4-10)[Dab-Dab-D-Leu-Ile-Dab-Dab-Thr]] (X2-[Dab]T[Dab][Dab][Dab][dL]I[Dab][Dab]T; lactam 4-C) | 1 (≈ 0.855 µM) | 2 (≈ 1.71 µM) | 1 (≈ 0.855 µM) | 128 (≈ 109 µM) | 1 (≈ 0.855 µM) | 176 ± 14.7 (≈ 151 µM) |  |  |  |  |  | 
